Structures can show the parent of a compound that is named as a salt.
Each compound was assayed against recombinant human AMPK complex 1 (containing α1β1γ1) (Homo sapiens, UniProt Q13131+Q9Y478) (assay: […] (in vitro AMPK activation assay)). Conditions: read-out: % Maximum AMP Activation of human AMPK Complex 1.
Assay type: biochemical
Protocol: Recombinant viruses were generated by cotransfection of AMPK/pBacPak9 clones with Baculogold baculovirus DNA (Pharmingen) in spodoptera frugiperda 21 cells according to the manufacturer's instructions. Each round of virus amplification was performed for 5 days in Grace's medium containing 10% serum. Virus that had been subjected to three rounds of amplification was used for all protein production procedures. To express the AMPK complex, sf21 cells were adapted to serum free medium (SF900 II, Invitrogen) by sequential dilution from serum containing stocks into SF900 II medium and maintained in shaker flasks at 90 rpm at 27° C. The recombinant AMPK enzyme complex was produced by triple infection, one recombinant virus for each of the subunits, in sf21 cells under serum free conditions. […] Cells were harvested by centrifugation at 10,000×g for 15 minutes after 72 hours of infection with viruses. The insect cell pellet from 2 liters of culture was resuspended in 50 ml lysis buffer (20 mM Tris-HCl, 50 mM NaCl, 50 mM NaF, 30 mM Na PPi, 0.25 M sucrose, 10 mM ZnCl2, 2 mM DTT, 0.4 mg/ml digitonin) and subjected to two cycles of freeze-thaw lysis in a dry-ice ethanol bath. Insoluble material was removed by centrifugation at 10,000×g and the supernatant was fractionated with use of polyethylene glycol (PEG).
The total in vitro AMPK activation assay volume is 50 μl in a 96-well plate. […] The reaction was initiated with addition of the enzyme. After 30-minute incubation at 30° C., the reaction was stopped by addition of 80 μl 1% H3PO4. Aliquots (100 μl) were transferred to 96-well MultiScreen plates (MAPHNOB50; Millipore Corp., Bedford, Mass., USA). The plate was washed three times with 1% H3PO4 followed by detection in a Top-count. The counts per minute from the basal activity (the reaction without activator) was subtracted from each well and the data were expressed as % maximum AMP activation followed by EC50 calculation.

Chain of recombinant human AMPK complex 1 (containing α1β1γ1) (Q13131 whole entry): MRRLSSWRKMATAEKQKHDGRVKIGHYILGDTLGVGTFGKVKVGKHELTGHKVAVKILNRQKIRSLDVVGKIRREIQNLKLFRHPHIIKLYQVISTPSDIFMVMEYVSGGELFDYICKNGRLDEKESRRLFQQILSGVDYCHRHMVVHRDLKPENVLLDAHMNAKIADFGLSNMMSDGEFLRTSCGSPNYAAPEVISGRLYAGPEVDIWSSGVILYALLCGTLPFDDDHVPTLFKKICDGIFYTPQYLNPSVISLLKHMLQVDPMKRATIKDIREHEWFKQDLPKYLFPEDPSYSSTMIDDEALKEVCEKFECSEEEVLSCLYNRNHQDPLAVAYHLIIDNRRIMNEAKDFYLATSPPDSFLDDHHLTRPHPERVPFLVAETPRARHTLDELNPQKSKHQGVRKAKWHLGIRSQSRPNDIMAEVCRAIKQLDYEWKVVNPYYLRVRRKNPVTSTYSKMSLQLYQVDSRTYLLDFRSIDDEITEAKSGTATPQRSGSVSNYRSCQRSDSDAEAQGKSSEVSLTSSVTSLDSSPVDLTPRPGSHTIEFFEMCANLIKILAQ
Chain of recombinant human AMPK complex 1 (containing α1β1γ1) (Q9Y478 whole entry): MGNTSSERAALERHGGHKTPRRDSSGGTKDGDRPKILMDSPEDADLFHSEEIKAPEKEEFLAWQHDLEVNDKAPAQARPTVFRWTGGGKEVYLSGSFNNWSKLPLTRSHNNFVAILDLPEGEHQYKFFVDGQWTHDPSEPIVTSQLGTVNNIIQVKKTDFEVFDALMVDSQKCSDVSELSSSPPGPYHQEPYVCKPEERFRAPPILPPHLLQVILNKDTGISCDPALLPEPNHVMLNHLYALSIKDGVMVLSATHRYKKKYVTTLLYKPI
Chain of recombinant human AMPK complex 1 (containing α1β1γ1) (P54619 whole entry partner): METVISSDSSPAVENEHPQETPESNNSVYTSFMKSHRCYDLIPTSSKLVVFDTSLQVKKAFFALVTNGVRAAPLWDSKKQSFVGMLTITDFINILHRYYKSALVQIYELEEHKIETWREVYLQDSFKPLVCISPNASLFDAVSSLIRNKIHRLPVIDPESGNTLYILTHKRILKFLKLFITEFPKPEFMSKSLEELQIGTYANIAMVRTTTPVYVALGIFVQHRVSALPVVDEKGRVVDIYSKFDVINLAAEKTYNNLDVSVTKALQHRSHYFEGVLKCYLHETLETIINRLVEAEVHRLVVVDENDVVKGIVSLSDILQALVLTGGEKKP

SMILES | Emax
Cc1ccc(Oc2nc3cc(-c4ccc5c(ccn5C(C)C)c4)c(Cl)cc3[nH]2)cc1C(=O)O [Example 253, 5-[6-Chloro-5-(1-isopropyl-1H-indol-5-yl)-1H-benzoimidazol-2-yloxy]-2-methyl-benzoic acid] | > 80%

Same assay, conditions: recombinant human AMPK complex 1 (α1β1γ1); basal activity subtracted; read-out: % Maximum AMP Activation of human AMPK Complex 1

SMILES | Emax
Cc1ccc(Oc2nc3cc(-c4ccc(C(C)C)c5c4CCN5C)c(Cl)cc3[nH]2)cc1C(=O)O [Example 268, 5-[6-Chloro-5-(7-isopropyl-1-methyl-2,3-dihydro-1H-indol-4-yl)-1H-benzoimidazol-2-yloxy]-2-methyl-benzoic acid] | > 80%
Cc1ccc(Oc2nc3cc(-c4ccc5c(C)noc5c4)c(Cl)cc3[nH]2)cc1C(=O)O [Example 265, 5-[6-chloro-5-(3-methyl-benzo[d]isoxazol-6-yl)-1H-benzoimidazol-2-yloxy]-2-methyl-benzoic acid] | > 80%
Cc1ccc(Oc2nc3cc(C#Cc4ccccc4Cl)c(Cl)cc3[nH]2)cc1C(=O)O [Example 115, 5-[6-Chloro-5-(2-chloro-phenylethynyl)-1H-benzoimidazol-2-yloxy]-2-methyl-benzoic acid] | > 80%
CN1CCOc2cc(-c3cc4nc(Oc5ccc(CC(=O)O)cc5)[nH]c4cc3Cl)ccc21 [Example 244, {4-[6-Chloro-5-(4-methyl-3,4-dihydro-2H-benzo[1,4]oxazin-7-yl)-1H-benzoimidazol-2-yloxy]-phenyl}-acetic acid] | > 80%
O=C(O)Cc1ccc(Oc2nc3cc(-c4ccc(-c5ccccc5)cc4)c(Cl)cc3[nH]2)cc1C(=O)O [Example 8, 5-(5-Biphenyl-4-yl-6-chloro-1H-benzoimidazol-2-yloxy)-2-carboxymethyl-benzoic acid] | > 80%
Cc1ccc(Oc2nc3cc(C#CC4CCCC4O)c(Cl)cc3[nH]2)cc1C(=O)O (stereo not shown) [Example 130, 5-[6-Chloro-5-(2-hydroxy-cyclopentylethynyl)-1H-benzoimidazol-2-yloxy]-2-methyl-benzoic acid] | > 80%
Cc1ccc(Oc2nc3cc(C#Cc4ccc(-n5cccn5)cc4)c(Cl)cc3[nH]2)cc1C(=O)O [Example 71, 5-[6-Chloro-5-(4-pyrazol-1-yl-phenylethynyl)-1H-benzoimidazol-2-yloxy]-2-methyl-benzoic acid] | > 80%
Cc1ccc(Oc2nc3cc(C#Cc4ccc(=O)[nH]c4)c(Cl)cc3[nH]2)cc1C(=O)O [Example 128, 5-[6-Chloro-5-(6-oxo-1,6-dihydro-pyridin-3-ylethynyl)-1H-benzoimidazol-2-yloxy]-2-methyl-benzoic acid] | > 80%
Cc1ccc(Oc2nc3cc(-c4cn[nH]c4)c(Cl)cc3[nH]2)cc1C(=O)O [Example 160, 5-[6-Chloro-5-(1H-pyrazol-4-yl)-1H-benzoimidazol-2-yloxy]-2-methyl-benzoic acid] | > 80%
COC(=O)c1cc(Oc2nc3cc(-c4ccc(-c5ccccn5)cc4)c(Cl)cc3[nH]2)ccc1C [Example 165, 5-[6-Chloro-5-(4-pyridin-2-yl-phenyl)-1H-benzoimidazol-2-yloxy]-2-methyl-benzoic acid methyl ester] | > 80%
CC(=O)c1ccc2cc(-c3cc4nc(Oc5ccc(C)c(C(=O)O)c5)[nH]c4cc3Cl)ccc2c1 [Example 298, 5-[5-(6-Acetyl-naphthalen-2-yl)-6-chloro-1H-benzoimidazol-2-yloxy]-2-methyl-benzoic acid] | > 80%
COc1ccc2cc(-c3cc4nc(Oc5cc(C)c(C)c(C(=O)O)c5)[nH]c4cc3Cl)ccc2c1 [Example 310, 5-[6-Chloro-5-(6-methoxy-naphthalen-2-yl)-1H-benzoimidazol-2-yloxy]-2,3-dimethyl-benzoic acid] | > 80%
Cc1ccc(Oc2nc3cc(-c4sc(-c5ccccc5)nc4C)c(Cl)cc3[nH]2)cc1C(=O)O [Example 361, 5-[6-chloro-5-(4-methyl-2-phenyl-thiazol-5-yl)-1H-benzoimidazol-2-yloxy]-2-methyl-benzoic acid] | > 80%
Cc1ccc(Oc2nc3cc(-c4cccc5c4ccn5C)c(Cl)cc3[nH]2)cc1C(=O)O [Example 283, 5-[6-Chloro-5-(1-methyl-1H-indol-4-yl)-1H-benzoimidazol-2-yloxy]-2-methyl-benzoic acid] | > 80%
Cc1ccc(Oc2nc3cc(-c4ccc5c(c4)CCC5=O)c(Cl)cc3[nH]2)cc1C(=O)O [Example 266, 5-[6-Chloro-5-(1-oxo-indan-5-yl)-1H-benzoimidazol-2-yloxy]-2-methyl-benzoic acid] | > 80%
Cc1ccc(Oc2nc3cc(-c4ccc(C(C)(C)N)cc4)c(Cl)cc3[nH]2)cc1C(=O)O [Example 297, 2-{4-[2-(3-carboxy-4-methylphenoxy)-6-chloro-1H-benzimidazol-5-yl]phenyl}propan-2-aminium trifluoroacetate] | > 80%
Cc1ccc(Oc2nc3cc(-c4ccc5c(c4)N(C)CCN5C)c(Cl)cc3[nH]2)cc1C(=O)O [Example 362, 5-[6-chloro-5-(1,4-dimethyl-1,2,3,4-tetrahydro-quinoxalin-6-yl)-1H-benzoimidazol-2-yloxy]-2-methyl-benzoic acid] | > 80%
Cc1ccc(Oc2nc3cc(-c4ccc(N5CCCC5=O)cc4)c(Cl)cc3[nH]2)cc1C(=O)O [Example 350, 2-(3-carboxy-4-methylphenoxy)-6-chloro-5-[4-(2-oxopyrrolidin-1-yl)phenyl]-1H-3,1-benzimidazol-3-ium trifluoroacetate] | > 80%
COc1cccc(C#Cc2cc3nc(Oc4ccc(C)c(C(=O)O)c4)[nH]c3cc2Cl)c1 [Example 108, 5-[6-Chloro-5-(3-methoxy-phenylethynyl)-1H-benzoimidazol-2-yloxy]-2-methyl-benzoic acid] | > 80%
Cc1ccc(Oc2nc3cc(C#Cc4ccc(-c5csnn5)cc4)c(Cl)cc3[nH]2)cc1C(=O)O [Example 85, 5-[6-Chloro-5-(4-[1,2,3]thiadiazol-4-yl-phenylethynyl)-1H-benzoimidazol-2-yloxy]-2-methyl-benzoic acid] | > 80%
Cc1ccc(Oc2nc3cc(-c4ccc5[nH]c(-c6ccccc6)cc5c4)c(Cl)cc3[nH]2)cc1C(=O)O [Example 278, 5-[6-Chloro-5-(2-phenyl-1H-indol-5-yl)-1H-benzoimidazol-2-yloxy]-2-methyl-benzoic acid] | > 80%
Cc1ccc(Oc2nc3cc(-c4ccc5c(c4)CC(=O)N5)c(Cl)cc3[nH]2)cc1C(=O)O [Example 307, 5-[6-Chloro-5-(2-oxo-2,3-dihydro-1H-indol-5-yl)-1H-benzoimidazol-2-yloxy]-2-methyl-benzoic acid] | > 80%
O=C(O)c1ccnc(Oc2nc3cc(-c4ccc(-c5ccccc5)cc4)c(Cl)cc3[nH]2)c1 [Example 215, 2-(5-Biphenyl-4-yl-6-chloro-1H-benzoimidazol-2-yloxy)-isonicotinic acid] | > 80%
Cc1ccccc1C#Cc1cc2nc(Oc3ccc(C)c(C(=O)O)c3)[nH]c2cc1Cl [Example 96, 5-(6-Chloro-5-o-tolylethynyl-1H-benzoimidazol-2-yloxy)-2-methyl-benzoic acid] | > 80%
O=C(O)CCc1cccc(Oc2nc3cc(C#Cc4ccccc4)c(Cl)cc3[nH]2)c1 [Example 24, 3-[3-(6-Chloro-5-phenylethynyl-1H-benzoimidazol-2-yloxy)-phenyl]-propionic acid] | > 80%
Cc1ccc(Oc2nc3cc(-c4ccc(C(C)(C)C#N)cc4)c(Cl)cc3[nH]2)cc1C(=O)O [Example 239, 5-{6-Chloro-5-[4-(cyano-dimethyl-methyl)-phenyl]-1H-benzoimidazol-2-yloxy}-2-methyl-benzoic acid] | > 80%
Cc1ccc(Oc2nc3cc(-c4ccc5c(C)n[nH]c5c4)c(Cl)cc3[nH]2)cc1C(=O)O [Example 240, 5-[6-Chloro-5-(3-methyl-1H-indazol-6-yl)-1H-benzoimidazol-2-yloxy]-2-methyl-benzoic acid] | > 80%
Cc1ccc(Oc2nc3cc(C#Cc4ccc(-c5nc[nH]n5)cc4)c(Cl)cc3[nH]2)cc1C(=O)O [Example 78, 5-{6-Chloro-5-[4-(1H-[1,2,4]triazol-3-yl)-phenylethynyl]-1H-benzoimidazol-2-yloxy}-2-methyl-benzoic acid] | > 80%

Same assay, conditions: recombinant human AMPK complex 1 (α1β1γ1); read-out: EC50

SMILES | EC50
Cc1ccc(Oc2nc3cc(-c4ccc(N5CCCC5)cc4)c(Cl)cc3[nH]2)cc1C(=O)O [Example 231, 5-{[6-chloro-5-(4-pyrrolidin-1-ylphenyl)-1H-benzimidazol-2-yl]oxy}-2-methylbenzoic acid] | 7 nM
Cc1ccc(Oc2nc3cc(-c4ccc(C(=O)N5CCC(O)CC5)cc4)c(Cl)cc3[nH]2)cc1C(=O)O [Example 236, 5-{6-Chloro-5-[4-(4-hydroxy-piperidine-1-carbonyl)-phenyl]-1H-benzoimidazol-2-yloxy}-2-methyl-benzoic acid] | 10 nM
